{"source": "patent US20190307740A1", "about": "“COMPOSITIONS AND METHODS FOR TREATMENT RELATED TO FALL AND FALL FREQUENCY IN NEURODEGENERATIVE DISEASES” (Neurocea, LLC, priority 2016, published 2019)", "key": {"[1]": {"test_system": "subjects with idiopathic PD with LIDs", "text": "This post hoc analysis was inclusive of patients having baseline scores of […] for each of UPDRS Part II Question 13, Part II Question 14, and Part III Item 30.\n(§1) The original UPDRS scale was used. […] In the UPDRS Part II, Question 13 is on Falling unrelated to Freezing. […] In Part II, Question 14 is on Freezing when Walking. This is a 5-point item and has two variables freezing and falls. […] Questions 13 and 14 were compared separately (Table 11).\nThis post hoc analysis was inclusive of patients having screening and/or baseline scores of greater than 0 for each of UPDRS Part II Question 13, Part II Question 14, and Part III Item 30."}, "[2]": {"test_system": "subjects with idiopathic PD with LIDs", "description": "(§2) At the time the study was performed (2009), there was no FDA accepted instrument for measuring treatment efficacy for LIDs. Therefore, several secondary objectives were utilized to assess efficacy including the Unified Dyskinesia Rating Scale (UDysRS).\nA total of 65 male and female subjects with idiopathic PD with LIDs were randomized in the study. The study consisted of 4 phases (FIG. 6A): screening phase (up to 3 weeks), double-blind treatment phase (10 weeks), taper phase (2 weeks), and follow-up phase (2 weeks). The approximate duration of the study for each subject was 17 weeks. […] During the double-blind treatment phase, dosing was begun at Visit 0 at 1 mg every 6 hours (total daily dose [TDD]=4 mg/day) and escalated upwards at 2-week intervals as follows: 2 mg every 6 hours (TDD=8 mg/day) at Visit 1 (Week 2); 4 mg every 6 hours (TDD=16 mg/day) at Visit 2 (Week 4); 6 mg every 6 hours (TDD=24 mg/day) at Visit 3 (Week 6). Subjects were maintained on 24 mg/day for 4 weeks. The subsequent taper phase (2 weeks total), beginning at Visit 4 (Week 10), consisted of 9 days of drug taper and 5 days off drug prior to Visit 5 (final safety visit). […] Ondansetron was provided by the sponsor and dispensed with each dose escalation step with instructions to use it for nausea and vomiting only during the first 4 days following dose initiation or escalation. […] No other dose down-titration was allowed.\n(§3) Efficacy was measured with the Unified Dyskinesia Rating Scale (UDysRS), a semi-quantitative assessment, FDA-validated instrument to assess […] dyskinesia in PD. […] Dosing was begun at 1 mg every 6 hours to a final dose of 24 mg per day. Patients who tolerated a total daily dose of at least 16 mg per day continued in the study.\nSubjects were maintained on 24 mg/day for 4 weeks. The subsequent taper phase (2 weeks total), beginning at visit 4 (Week 10), consisted of 9 days of drug taper and 5 days off drug prior to Visit 5 (final safety visit). […] No other down-titration was allowed.\n(§4) LIDs were assessed by the UDysRS, the main measure of LIDs (Table 12). […] The study was conducted in accordance with the Declaration of Helsinki and Good Clinical Practice Guidelines. All sites received approval from an institutional review board and written informed consent was obtained from each patient prior to participation.", "remark": "listed apart in the source"}, "[3]": {"test_system": "subjects with idiopathic PD with LIDs", "description": "as §2, §3, §4\n(§5) The efficacy variables for LIDs were the mean change from baseline to week 10 in the UDysRS total score; UDysRS sub-scores (Table 12). An analysis of covariance (ANCOVA) combined features of regression and analysis of variance (ANOVA). In addition to the descriptive summary of each variable from baseline to endpoint, Least Square (LS) means standard errors and 95% Confidence intervals (CI) of each group, and the difference of LS means between the 2 treatment groups and its 95% CI are presented. A similar analysis was applied to comparisons between UPDRS Part II, UPDRS Part III.", "remark": "listed apart in the source"}, "[4]": {"test_system": "subjects with idiopathic PD with LIDs", "text": "as §1, §5", "remark": "listed apart in the source"}, "[5]": {"conditions": "baseline to week 10, of 30 patients"}}, "note": "Values joined by “and” are separate entries in the source; they are usually repeats but may differ in a detail not shown here. Identical values can stand only once."}
{"smiles": "CN1CCCC1c1cccnc1.O=C(O)C(O)C(O)C(=O)O", "note": "(stereo not drawn) [NP002, Nicotine Bitartrate]", "values": [{"measurement": "Pull Test (Item 30): patients with No Change", "setting": "[1]; [5]", "result": 19}, {"measurement": "Pull Test (Item 30): patients with change +1", "setting": "[1]; [5]", "result": 1}, {"measurement": "Pull Test (Item 30): patients with change +2", "setting": "[1]; [5]", "result": 0}, {"measurement": "Pull Test (Item 30): patients with change +3", "setting": "[1]; [5]", "result": 0}, {"measurement": "Pull Test (Item 30): patients with change −1", "setting": "[1]; [5]", "result": 5}, {"measurement": "Pull Test (Item 30): patients with change −2", "setting": "[1]; [5]", "result": 5}, {"measurement": "Pull Test (Item 30): patients with change −3", "setting": "[1]; baseline to week 10, of 30 patients, negative = improvement", "result": 0}, {"measurement": "patients with improvement in postural stability (pull test)", "setting": "[1]; patients with screening and/or baseline score >0, p=0.054 vs placebo", "result": "9 of 24"}, {"measurement": "Study discontinuation, primary reason adverse event, n (%)", "setting": "[2]; 35 randomized", "result": "6 n (%) and 6 (17.1) n (%)"}, {"measurement": "Constipation", "setting": "[2]; N = 35", "result": "5 (14.3) n (%)"}, {"measurement": "Diarrhea", "setting": "[2]; N = 35", "result": "2 (5.7) n (%)"}, {"measurement": "Dizziness", "setting": "[2]; N = 35", "result": "7 (20.0) n (%)"}, {"measurement": "Fatigue", "setting": "[2]; N = 35", "result": "3 (8.6) n (%)"}, {"measurement": "Headache", "setting": "[2]; N = 35", "result": "2 (5.7) n (%)"}, {"measurement": "Insomnia", "setting": "[2]; N = 35", "result": "0 (0.0) n (%)"}, {"measurement": "Nausea", "setting": "[2]; N = 35", "result": "13 (37.1) n (%)"}, {"measurement": "Nightmare", "setting": "[2]; N = 35", "result": "2 (5.7) n (%)"}, {"measurement": "Number (%) of subject with any AE", "setting": "[2]; N = 35", "result": "26 (74.3) n (%)"}, {"measurement": "Pain", "setting": "[2]; N = 35", "result": "3 (8.6) n (%)"}, {"measurement": "Pain in extremity", "setting": "[2]; N = 35", "result": "2 (5.7) n (%)"}, {"measurement": "Tremor", "setting": "[2]; N = 35", "result": "2 (5.7) n (%)"}, {"measurement": "Vomiting", "setting": "[2]; N = 35", "result": "4 (11.4) n (%)"}, {"measurement": "Subjects who required dose reduction or discontinuation of study treatment, n (%)", "setting": "[2]; because of adverse events, 35 randomized", "result": "7 (20.0) n (%)"}, {"measurement": "serum cotinine levels", "setting": "[2]; compliance check", "result": "paralleled dosing of nicotine"}, {"measurement": "most frequent adverse event", "setting": "[2]; in vivo", "result": "nausea"}, {"measurement": "number of adverse events reported", "setting": "[2]; in vivo", "result": 45}, {"measurement": "overall safety and tolerability", "setting": "[2]; oral 4 times/day up to 24 mg/day, 10 weeks", "result": "safe and well tolerated, other than nausea"}, {"measurement": "UDysRS Evaluation of Dyskinesias on Ambulation, Difference LS Means", "setting": "[3]; NP002 vs placebo, p 0.011", "result": "−3.7 +/− 1.9"}, {"measurement": "UDysRS Evaluation of Dyskinesias on 7 Body Parts, Difference LS Means", "setting": "[3]; NP002 vs placebo, p 0.062", "result": "−2.8 +/− 2.6"}, {"measurement": "Total Score UDysRS, Difference LS Means", "setting": "[3]; NP002 vs placebo, p 0.092", "result": "−6.7 +/− 4.1"}, {"measurement": "UDysRS Evaluation of Dyskinesias on Dressing, Difference LS Means", "setting": "[3]; NP002 vs placebo, p 0.139", "result": "−2.1 +/− 1.4"}, {"measurement": "UDysRS Evaluation of Dyskinesias on Drinking, Difference LS Means", "setting": "[3]; NP002 vs placebo, p 0.171", "result": "−2.4 +/− 1.7"}, {"measurement": "UDysRS Evaluation of Dyskinesias on Communication, Difference LS Means", "setting": "[3]; NP002 vs placebo, p 0.189", "result": "−1.9 +/− 1.4"}, {"measurement": "UDysRS total score (primary outcome of dyskinesia) vs placebo", "setting": "[3]; Week 10", "result": "statistical trend towards improvement"}, {"measurement": "reduction (improvement) in UDysRS ambulation subtest", "setting": "[3]; baseline to week 10, p=0.011 vs placebo", "result": "46% and 46.3%"}, {"measurement": "reduction in LIDs on the Total UDysRS", "setting": "[3]; baseline to week 10, p=0.09 vs placebo", "result": 29, "unit": "%"}, {"measurement": "Total Score UDysRS, Baseline", "setting": "[3]; before treatment, n=35", "result": "51.7 +/− 16.9"}, {"measurement": "UDysRS Evaluation of Dyskinesias on 7 Body Parts, Baseline", "setting": "[3]; before treatment, n=35", "result": "13.5 +/− 5.4"}, {"measurement": "UDysRS Evaluation of Dyskinesias on Ambulation, Baseline", "setting": "[3]; before treatment, n=35", "result": "9.5 +/− 6.0"}, {"measurement": "UDysRS Evaluation of Dyskinesias on Communication, Baseline", "setting": "[3]; before treatment, n=35", "result": "10.5 +/− 4.8"}, {"measurement": "UDysRS Evaluation of Dyskinesias on Dressing, Baseline", "setting": "[3]; before treatment, n=35", "result": "11.3 +/− 6.2"}, {"measurement": "UDysRS Evaluation of Dyskinesias on Drinking, Baseline", "setting": "[3]; before treatment, n=35", "result": "9.1 +/− 5.6"}, {"measurement": "physician reported outcomes per UDysRS Part III vs placebo", "setting": "[3]; dyskinesia impact on ambulation, p=0.011", "result": "significant improvement"}, {"measurement": "Total Score UDysRS, Week 10", "setting": "[3]; n=27", "result": "36.4 +/− 16.1"}, {"measurement": "UDysRS Evaluation of Dyskinesias on Ambulation, Week 10", "setting": "[3]; n=27", "result": "5.1 +/− 5.3"}, {"measurement": "UDysRS Evaluation of Dyskinesias on Communication, Week 10", "setting": "[3]; n=27", "result": "7.0 +/− 5.0"}, {"measurement": "UDysRS Evaluation of Dyskinesias on Dressing, Week 10", "setting": "[3]; n=27", "result": "6.9 +/−5.5"}, {"measurement": "UDysRS Evaluation of Dyskinesias on Drinking, Week 10", "setting": "[3]; n=27", "result": "5.3 +/− 5.0"}, {"measurement": "Difference in LS Means, UPDRS Part III", "setting": "[4]; NP002 versus placebo, p 0.337", "result": "−18.3 ± 1.8"}, {"measurement": "Difference in LS Means, UPDRS Part II", "setting": "[4]; NP002 versus placebo, p 0.631", "result": "10.1 ± 0.96"}, {"measurement": "UPDRS II Change", "setting": "[4]; baseline to 10 weeks", "result": "2.8 ± 5.2"}, {"measurement": "UPDRS III Change", "setting": "[4]; baseline to 10 weeks", "result": "2.0 ± 7.5"}, {"measurement": "UPDRS II at Baseline", "setting": "[4]; before treatment, n=35", "result": "13.1 ± 6.0"}, {"measurement": "UPDRS III at Baseline", "setting": "[4]; before treatment, n=35", "result": "20.0 ± 8.8"}, {"measurement": "UPDRS II at 10 Weeks", "setting": "[4]; n=30", "result": "10.1 ± 5.3"}, {"measurement": "UPDRS III at 10 Weeks", "setting": "[4]; n=30", "result": "17.3 ± 10.6"}, {"measurement": "UPDRS Part II and Part III after treatment vs placebo", "setting": "[4]; p>0.34", "result": "no significant differences"}]}
